Earlier results, collected in patent US20120277309A1, “METHODS OF CONTROLLING VENOUS IRRITATION ASSOCIATED WITH THE TREATMENT OF A CARDIAC DISORDER” (BAXTER HEALTHCARE S.A., priority 2011, published 2012).
Counter-ions that a name gives are not always drawn.

Assays:
beta-adrenergic = conditions: disclosed in WO 88/01614
[1] = packaging insert, Baxter; incidence increases with concentration

Row | Compound | Potency as a beta-adrenergic-blocking agent relative to an equivalent amount of the racemic mixture (beta-adrenergic) | Venous irritation in patients on infusion [1]
1 | COC(=O)CCc1ccc(OC[C@@H](O)CNC(C)C)cc1.Cl (single isomer, unassigned) [S-isomer of esmolol hydrochloride] | about twice | 
2 | COC(=O)CCc1ccc(OCC(O)CNC(C)C)cc1 (racemic) [R,S-esmolol hydrochloride, methyl-3-[4-(2-hydroxy-3-isopropylamino)propoxy]phenylpropionate hydrochloride] |  | A significant number of patients experience venous irritation at the infusion site
